Data from US9061030B2, “sGC stimulators” (IRONWOOD PHARMACEUTICALS, INC., priority 2010, dated 2015).

Target: T1, soluble guanylate cyclase (sGC) (Homo sapiens, UniProt Q02108+Q02153)
T1 construct: endogenously expressing soluble guanylate cyclase (sGC); endogenous in cells; host or cells: HEK293
T1 sequence (Q02153 1-619): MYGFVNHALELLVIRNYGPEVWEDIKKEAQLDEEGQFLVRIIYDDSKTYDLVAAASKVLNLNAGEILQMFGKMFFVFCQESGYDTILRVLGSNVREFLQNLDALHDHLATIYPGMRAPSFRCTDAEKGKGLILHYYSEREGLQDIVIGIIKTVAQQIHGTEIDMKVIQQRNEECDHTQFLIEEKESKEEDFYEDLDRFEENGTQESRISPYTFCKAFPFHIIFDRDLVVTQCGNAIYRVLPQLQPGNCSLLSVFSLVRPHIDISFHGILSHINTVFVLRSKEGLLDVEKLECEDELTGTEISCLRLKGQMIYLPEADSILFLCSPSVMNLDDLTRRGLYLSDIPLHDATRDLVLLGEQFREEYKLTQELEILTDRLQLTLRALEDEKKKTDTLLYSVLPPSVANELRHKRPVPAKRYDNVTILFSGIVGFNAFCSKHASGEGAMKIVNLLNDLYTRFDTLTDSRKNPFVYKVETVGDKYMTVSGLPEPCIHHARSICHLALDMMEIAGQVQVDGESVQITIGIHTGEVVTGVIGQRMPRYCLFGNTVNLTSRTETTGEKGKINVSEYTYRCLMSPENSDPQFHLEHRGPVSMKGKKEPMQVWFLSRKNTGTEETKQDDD
T1 sequence (Q02108 1-690): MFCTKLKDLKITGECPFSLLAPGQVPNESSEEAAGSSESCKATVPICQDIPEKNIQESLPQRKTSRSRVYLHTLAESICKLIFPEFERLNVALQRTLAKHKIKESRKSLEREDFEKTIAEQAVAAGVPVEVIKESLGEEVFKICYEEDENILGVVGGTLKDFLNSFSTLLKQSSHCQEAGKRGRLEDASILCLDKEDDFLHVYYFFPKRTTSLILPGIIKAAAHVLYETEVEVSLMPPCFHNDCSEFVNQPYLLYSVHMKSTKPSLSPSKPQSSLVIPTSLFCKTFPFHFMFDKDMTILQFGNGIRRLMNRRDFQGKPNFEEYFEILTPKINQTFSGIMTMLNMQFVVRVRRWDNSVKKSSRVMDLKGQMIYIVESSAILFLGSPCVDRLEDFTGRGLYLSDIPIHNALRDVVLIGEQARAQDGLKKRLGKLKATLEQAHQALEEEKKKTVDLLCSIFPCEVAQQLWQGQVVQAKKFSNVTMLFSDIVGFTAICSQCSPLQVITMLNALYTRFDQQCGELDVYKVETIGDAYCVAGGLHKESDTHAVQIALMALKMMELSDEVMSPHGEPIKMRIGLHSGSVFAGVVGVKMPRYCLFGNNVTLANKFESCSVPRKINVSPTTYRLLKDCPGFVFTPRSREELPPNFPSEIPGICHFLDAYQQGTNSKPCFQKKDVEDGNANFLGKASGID
Experiment: sGC-HEK-cGMP assay
Assay type: cell-based
Conditions: HEK293 cells, 10 μM SNP, percentage of sGC activity obtained with positive control BAY 41-2272 (= 100%); for Emax at 10 µM: compound at 10 μM; for Emax at 30 µM: compound at 30 μM
In short: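 HEK293 cells endogenously expressing sGC, preincubated 15 min at 37 °C with 0.5 mM IBMX, then exposed to compound plus 10 μM sodium nitroprusside for 10 min at 37 °C. Reaction stopped and cells lysed with 0.1 M HCl; cGMP quantified by LC/MS against a standard curve; EC50 from concentration-response curves.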

Structure (SMILES) | Emax at 10 µM [%] | Emax at 30 µM [%]
Fc1ccccc1Cn1nc(-c2ccccn2)nc1-c1ccccn1 [Compound I-1] | 5 to 10 | 20 to 40
Fc1ccccc1Cn1nc(-c2ncccn2)nc1-c1cscn1 [Compound I-3] | 0 to 5 | 20 to 40
Fc1ccccc1Cn1nc(-c2ccccn2)nc1-c1cscn1 [Compound I-4] | 20 to 40 | 40 to 60
Fc1ccccc1Cn1nc(-c2ccccn2)nc1-c1ncco1 [Compound I-6] | 20 to 40 | 20 to 40
Fc1ccccc1Cn1nc(-c2ccccn2)nc1-c1cocn1 [Compound I-12, 4-(1-(2-fluorobenzyl)-3-(pyridin-2-yl)-1H-1,2,4-triazol-5-yl)oxazole] | 20 to 40 | 40 to 60
Fc1ccccc1Cn1nc(-c2ccccn2)nc1-c1nccs1 [Compound I-25] | 20 to 40 | 40 to 60
Fc1ccccc1Cn1nc(-c2ncccn2)nc1-c1nccs1 [Compound I-30] | 10 to 20 | 20 to 40
Fc1ccc(-c2nc(-c3nccs3)n(Cc3ccccc3F)n2)nc1 [Compound I-38] | 40 to 60 | 20 to 40
Fc1ccccc1Cn1nc(-c2cscn2)nc1-c1nccs1 [Compound I-40] | 20 to 40 | 10 to 20
Fc1ccccc1Cn1nc(-c2nccs2)nc1-c1cscn1 [Compound I-41] | 40 to 60 | 60 to 80
Nc1ccnc(-c2nc(-c3nccs3)n(Cc3ccccc3F)n2)c1 [Compound I-44] | 40 to 60 | 60 to 80
Fc1ccccc1Cn1nc(-c2ncccn2)nc1-c1cocn1 [Compound I-46] | 20 to 40 | 20 to 40
Nc1ccnc(-c2nc(-c3nccs3)n(Cc3ccccc3F)n2)n1 [Compound I-48, 2-(1-(2-fluorobenzyl)-5-(thiazol-2-yl)-1H-1,2,4-triazol-3-yl)pyrimidin-4-amine] | 40 to 60 | 60 to 80
Fc1ccccc1Cn1nc(-c2ccccn2)nc1-n1cncn1 [Compound I-50, 2′-(2-fluorobenzyl)-5′-(pyridin-2-yl)-2′H-1,3′-bi(1′,2′,4-triazole)] | 20 to 40 | 20 to 40
Nc1ccnc(-c2nc(-c3cscn3)n(Cc3ccccc3F)n2)c1 [Compound I-53, 2-(1-(2-fluorobenzyl)-5-(thiazol-4-yl)-1H-1,2,4-triazol-3-yl)pyridin-4-amine] | 40 to 60 | 60 to 80
COC(=O)N(C)c1c(N)nc(-c2nc(-c3nccs3)n(Cc3ccccc3F)n2)nc1N [Compound I-61, methyl 4,6-diamino-2-(1-(2-fluorobenzyl)-5-(thiazol-2-yl)-1H-1,2,4-triazol-3-yl)pyrimidin-5-yl(methyl)carbamate] | 20 to 40 | 40 to 60
